Experiments:
[1] = tested on: cKIT1 (unlabelled) (DNA, G4) GGGAGGGCGCTGGGAGGAGGG; assay: CD titration; settings: K+ (50 mM KCl); 10 mM Tris-HCl, pH 7.4, 25 °C; 1-10 equiv compound
[2] = tested on: hTelo (unlabelled) (DNA, G4) GGGTTAGGGTTAGGGTTAGGG; assay: CD titration; settings: K+ (50 mM KCl); 10 mM Tris-HCl, pH 7.4, 25 °C; 1-10 equiv compound

| SMILES | binding [1] | binding [2] |
| --- | --- | --- |
| CN1[C]N(CCCN2[C]N(C)c3c2c(=O)n(C)c(=O)n3C)c2c1n(C)c(=O)n(C)c2=O.CN1[C]N(CCCN2[C]N(C)c3c2c(=O)n(C)c(=O)n3C)c2c1n(C)c(=O)n(C)c2=O.[Au+].[Au+] | yes | yes |
| CN1[C]N(CCCN2[C]N(C)c3ccccc32)c2ccccc21.CN1[C]N(CCCN2[C]N(C)c3ccccc32)c2ccccc21.[Au+].[Au+] | yes | yes |
